# Test results as given in patent US20230293511A1, “Ophthalmic Compositions and Uses Thereof” (priority 2022, published 2023).
# Like-named read-outs stand apart in the source and are kept apart here.
# Tested on: patients with Fuchs Corneal Dystrophy (corneal edema)
# Assay type: in vivo, human
# Conditions: for BCVA (best corrected visual acuity) improvement: netarsudil QD
# Text: FIG. 1 is a graphic representation of the study described in Example 6.
# A Randomized, Open-Label, Parallel-Group Study of Two Dosing Regimens of Netarsudil in Patients with Fuchs Corneal Dystrophy
# Fuchs Corneal Dystrophy (FCD) is a slowly progressive corneal disease, and is the most common indication for corneal transplants worldwide. A typical patient presents with blurred vision, glare, and a hazy cornea from corneal edema. The only definitive treatment option to restore vision is surgery. There is a large unmet need for pharmacologic alternatives to surgery
# Purpose of this study: evaluate the therapeutic potential of two dosing regimens of netarsudil, a Rho kinase inhibitor, to reduce corneal edema and improve visual acuity in patients with FCD. […] Complete resolution of edema in 12.5% of patients at Week 4 (BID+QD) (FIG. 2). • d. 25% of patients gained letters from baseline in BCVA at Week 4 (BID+QD) (FIG. 4). • e. […] Improvements in validated patient reported outcome questionnaire shown at all timepoints with netarsudil QD dosing (FIG. 5). • g. […] Most common ocular TEAE was hyperemia accounting for 3/9 and 6/17 total ocular TEAE in the QD and BID groups, respectively. • i. Reticular edema developed in 1 patient in BID group, which resolved with treatment discontinuation.
structure (smiles),measurement,setting,value
"Cc1ccc(C(=O)OCc2ccc([C@@H](CN)C(=O)Nc3ccc4cnccc4c3)cc2)c(C)c1 [netarsudil, Netarsudil]",reticular edema developed,"human, in vivo",1 patient
same,tolerability,"human, in vivo",well tolerated
same,BCVA (best corrected visual acuity) improvement,week 2,5.0 letters
same,BCVA (best corrected visual acuity) improvement,week 4,3.2 letters
same,patients with complete resolution of edema,"week 4, BID+QD",12.5%
same,patients who gained letters from baseline in BCVA,"week 4, overall (BID+QD)",25%
